Reference: patent publication US9187784B2, “EphA4 is a disease modifier in motor neuron disease” (VIB VZW, priority 2011, dated 2015)
Marks after values point to notes of the source that are not given here.

How the values were obtained:
Format in all cases: in vivo
RTK1 = RTK1 expression by Western blot and whole-mount immunostaining of zebrafish embryos; settings: Western blot of zebrafish embryos and whole-mount immunostaining of rhombomeres, 4.5 ng
Text: FIG. 1: EphA4 knockdown rescues mutant SOD1-induced motor axonopathy. […] Abnormal branching is indicated with arrowhead. Y-axes show motor axon length of zebrafish embryos expressing wild-type SOD1 (black bar, Panels D-G) or mutant SOD1 (white bar, Panels D-G). Knockdown of RTK2 in SOD1A4V- (Panel D), SOD1G93A- (Panel E) and SOD1G37R- (Panel F) expressing fish was established by co-injection of increasing amounts of atg-RTK2 morpholino (shaded bars). RTK1 expression was inhibited in SOD1A4V-expressing fish by co-injection of atg-RTK1 morpholino (shaded bars, Panel G). Ctr-RTK2 and ctr-RTK1 were used as control. ANOVA and Bonferroni's multiple comparison tests were used for statistical analysis. […]
Mice spinal cord and 30 hpf old, dechorionated and deyolked zebrafish embryos, and NSC-43 cells were homogenized in buffer: 50 mM Triz/HCl, pH 7.5, 120 mM NaCl, 1% TRITON® X-100, 1 mM sodium orthovanadaat, 2 mM PMSF, complete protease inhibitor (Roche). Protein concentration was determined using the micro-BCA protein assay reaction kit 207 (Pierce). […]

TDP43A315T embryos = experiment: mutant TDP-43-induced motor axonopathy in zebrafish embryos
Procedure: (§1) FIG. 14: Inhibiting EphA4 signaling rescues motor axonopathies induced by overexpression of mutant TDP-43 and knockdown of Smn. Y-axes show motor axon length of zebrafish embryos (30 hpf) expressing TDP^WT (black bar) or TDP^A315T (white bar) (Panels A, B) or with unaltered (black bar) or reduced expression levels of Smn (white bar) (Panels C, D). Smn knockdown was established by injection of 3 ng (Panel C) or 6 ng (Panel D) atg-smn morpholino. Ctr-smn morpholino was injected as control. RTK1 signaling was inhibited by injection of 3 ng atg-RTK1 morpholino (shaded bars) (Panels A, C) or by treatment with C1 (500 μM, shaded bars) (Panels B, D). Injection of ctr-RTK1 morpholino and application of a 1/250 dilution of DMSO were used as control. ANOVA and Bonferroni's multiple comparison tests were used for statistical analysis: TDP^A315T/atg-RTK1 (n=24) vs. TDP^A315T/ctr-RTK1 (n=34, p=7.86×10^−5, Panel A), TDP^A315T/C1 (n=21) vs. TDP^A315T/DMSO (n=21, p=0.045, Panel B), atg-smn/atg-RTK1 (n=35) vs. atg-smn/ctr-RTK1 (n=35, p=4.93×10^−8, Panel C), atg-smn/C1 (n=91) vs. atg-smn/DMSO (n=105, p=1.27×10^−6, Panel D). Error bars are s.e.m.
Mann-Whitney test was used to determine significance between TDPA315T/ctr-RTK1 (4.5 ng) vs. TDPA315T/atg-RTK1 (4.5 ng, * p=0.001) and between TDPA315T/control vs. TDPA315T/C1 (° p=0.029). Control=1/250 DMSO and C1=500 μM.
A morpholino database of translation-blocking morpholinos (atg-mo) was used to perform a morpholino-based knockdown screening in a zebrafish model for ALS.^13 The standard control morpholino (5′-[…]-′3) (SEQ ID NO:4), provided by Gene tools, was used as control. Three nanograms of morpholino were co-injected with […] of SOD1 mRNA and the effect of gene knockdown on the mutant SOD1-induced axonopathy analyzed. Each morpholino was tested in two separate experiments. Only morphologically normal embryos were included for further analysis. Overexpression of SOD1 or TDP-43, applied to validate the protective morpholino, was established by injection of 1.76 ng SOD1 mRNA or 1.43 ng TDP-43 mRNA, respectively. Antisense morpholinos to knockdown zebrafish RTK1, RTK2, Smn and their five base pair-mismatch control morpholinos were developed by Gene tools: atg-RTK1 (5′-[…]-′3) (SEQ ID NO:5), atg-RTK2 (5′-[…]-[…]-′3) (SEQ ID NO:6), splice-RTK2 (5′-[…]-[…]-′3) (SEQ ID NO:7) and atg-smn (5′-[…]-3′) (SEQ ID NO:8). Compound 1 (2,5-dimethylpyrrolyl benzoic acid, Matrix Scientific) dissolved in DMSO was added to the water of 6-hpf-old zebrafish embryos.

[1] = system: zebrafish embryos with knockdown of Smn; experiment: rescue of motor axon phenotype induced by knockdown of Smn (SMA model)
Procedure: as §1, with “ANOVA and Bonferroni's multiple comparison tests were used for statistical analysis: TDP^A315T/atg-RTK1 (n=24) vs. TDP^A315T/ctr-RTK1 (n=34, p=7.86×10^−5, Panel A), TDP^A315T/C1 (n=21) vs. TDP^A315T/DMSO (n=21, p=0.045, Panel B), atg-smn/atg-RTK1 (n=35) vs. atg-smn/ctr-RTK1 (n=35, p=4.93×10^−8, Panel C), atg-smn/C1 (n=91) vs. atg-smn/DMSO (n=105, p=1.27×10^−6, Panel D). Error bars are s.e.m.” left out
A morpholino database of translation-blocking morpholinos (atg-mo) was used to perform a morpholino-based knockdown screening in a zebrafish model for ALS.^13 The standard control morpholino (5′-[…]-′3) (SEQ ID NO:4), provided by Gene tools, was used as control. Three nanograms of morpholino were co-injected with 1.43 ng of SOD1 mRNA and the effect of gene knockdown on the mutant SOD1-induced axonopathy analyzed. […]

Row | Molecule | RTK1 expression (RTK1) | % affected embryos (TDP43A315T embryos; TDPA315T embryos, morpholino 4.5 ng) | % affected embryos (TDP43A315T embryos; TDPWT embryos, morpholino 4.5 ng) | effect on outgrowth deficit and aberrant branching induced by mutant TDP-43 (TDP43A315T embryos; zebrafish embryos) | effect on motor axon phenotype induced by knockdown of Smn [1] | % affected embryos (TDP43A315T embryos; TDPA315T embryos, C1 500 μM) | % affected embryos (TDP43A315T embryos; TDPWT embryos, C1 500 μM)
1 | 5′-CTGTGAACACAAGCGCAGCCATTGG-′3 (all phosphorodiamidate morpholino (PMO)) [atg-RTK1] | efficiently blocked RTK1 expression | 11* (43) % | 9 (42) % | rescued the outgrowth deficit and aberrant branching induced by mutant TDP-43 | rescued the motor axon phenotype induced by knockdown of Smn |  | 
2 | Cc1ccc(C)n1-c1ccc(C(=O)O)c(O)c1 [Compound C1] |  |  |  |  |  | 25° (16) % | 33 (36) %
